This passage reports mutagenic call results from PubChem BioAssay AID1259407 (Chemical Carcinogenesis Research Information System (CCRIS), 2018).

In this data set the test system is CCRIS mutagenicity, Ames/micronucleus/aberration tests. Put plainly: CCRIS mutagenicity studies.
The mark [1] stands for this setting: Test System: AMES SALMONELLA TYPHIMURIUM, Strain/Indicator: TA98, Metabolic Activation: NONE, Method: STANDARD PLATE.
Setting [2] is: Test System: AMES SALMONELLA TYPHIMURIUM, Strain/Indicator: TA100, Metabolic Activation: NONE, Method: STANDARD PLATE.
[3] abbreviates: Test System: AMES SALMONELLA TYPHIMURIUM, Strain/Indicator: TA97, Metabolic Activation: RAT, LIVER, S-9, AROCLOR 1254, Method: STANDARD PLATE.
Where [4] appears, read: Test System: AMES SALMONELLA TYPHIMURIUM, Strain/Indicator: TA98, Metabolic Activation: RAT, LIVER, S-9, AROCLOR 1254, Method: STANDARD PLATE.
The mark [5] stands for this setting: Test System: AMES SALMONELLA TYPHIMURIUM, Strain/Indicator: TA100, Metabolic Activation: RAT, LIVER, S-9, AROCLOR 1254, Method: STANDARD PLATE.
[6] abbreviates: Test System: AMES SALMONELLA TYPHIMURIUM, Strain/Indicator: TA104, Metabolic Activation: NONE, Method: STANDARD PLATE.

SMILES strings stand for the structures. Active and inactive are the calls of the source. How the calls were made is not given here.

As for `O=[N+]([O-])c1c2c(cc3c1ccc1ccccc13)C=C[C@@H](O)[C@@H]2O`, the mutagenic call under setting [1] was “active; positive” and the mutagenic call under setting [2] was “inactive; negative”.

In the case of `CC(NC(=O)COc1ccc(Cl)cc1Cl)C(=O)O` (stereo not drawn), the mutagenic call under setting [3] was “inactive; negative”; the mutagenic call (Test System: AMES SALMONELLA TYPHIMURIUM, Strain/Indicator: TA97, Metabolic Activation: WOODCHUCK, LIVER, S-9, 3-METHYLCHOLANTHRENE, Method: STANDARD PLATE) was “inactive; negative”; the mutagenic call under setting [4] was “inactive; negative”; the mutagenic call (Test System: AMES SALMONELLA TYPHIMURIUM, Strain/Indicator: TA98, Metabolic Activation: WOODCHUCK, LIVER, S-9, 3-METHYLCHOLANTHRENE, Method: STANDARD PLATE) is “inactive; negative”; the mutagenic call under setting [5] is “inactive; negative”; the mutagenic call (Test System: AMES SALMONELLA TYPHIMURIUM, Strain/Indicator: TA100, Metabolic Activation: WOODCHUCK, LIVER, S-9, 3-METHYLCHOLANTHRENE, Method: STANDARD PLATE) was “inactive; negative”. Also, the mutagenic call (Test System: AMES SALMONELLA TYPHIMURIUM, Strain/Indicator: TA1535, Metabolic Activation: RAT, LIVER, S-9, AROCLOR 1254, Method: STANDARD PLATE) was “inactive; negative”; the mutagenic call (Test System: AMES SALMONELLA TYPHIMURIUM, Strain/Indicator: TA1535, Metabolic Activation: WOODCHUCK, LIVER, S-9, 3-METHYLCHOLANTHRENE, Method: STANDARD PLATE) was “inactive; negative”; the mutagenic call (Test System: AMES SALMONELLA TYPHIMURIUM, Strain/Indicator: TA1538, Metabolic Activation: RAT, LIVER, S-9, AROCLOR 1254, Method: STANDARD PLATE) was “inactive; negative”; the mutagenic call (Test System: AMES SALMONELLA TYPHIMURIUM, Strain/Indicator: TA1538, Metabolic Activation: WOODCHUCK, LIVER, S-9, 3-METHYLCHOLANTHRENE, Method: STANDARD PLATE) was “inactive; negative”.

Turning to `Clc1ccc(N=Nc2ccc(Cl)c(Cl)c2)cc1Cl`, the mutagenic call is “inactive; negative” (Test System: AMES SALMONELLA TYPHIMURIUM, Strain/Indicator: TA97, Metabolic Activation: NONE, Method: STANDARD PLATE); “inactive; negative” under setting [3]; “inactive; negative” under setting [1]; “inactive; negative” under setting [4]; “inactive; negative” under setting [2]; “inactive; negative” under setting [5]. Also, the mutagenic call by setting is: under setting [6], “inactive; negative”; (Test System: AMES SALMONELLA TYPHIMURIUM, Strain/Indicator: TA104, Metabolic Activation: RAT, LIVER, S-9, AROCLOR 1254, Method: STANDARD PLATE) “inactive; negative”; (Test System: CHINESE HAMSTER OVARY, Strain/Indicator: CHO-K1-BH4 (HGPRT), Metabolic Activation: NONE) “inactive; negative”; (Test System: CHINESE HAMSTER OVARY, Strain/Indicator: CHO-K1-BH4 (HGPRT), Metabolic Activation: RAT, LIVER, S-9, AROCLOR 1254) “inactive; negative”; (Test System: UDS RODENT HEPATOCYTES, Strain/Indicator: THY INCORP (NON-S-PHASE), Method: LIQUID SCINTILLATION COUNTING) “active; positive”.

`O=[N+]([O-])c1ccc2c(c1)Oc1ccc([N+](=O)[O-])cc1O2`: the mutagenic call was “active; positive” (Test System: AMES SALMONELLA TYPHIMURIUM, Strain/Indicator: TA98(1,8-DNP6), Metabolic Activation: NONE, Method: PREINCUBATION); “active; positive” (Test System: AMES SALMONELLA TYPHIMURIUM, Strain/Indicator: TA98(1,8-DNP6), Metabolic Activation: NONE, Method: SUSPENSION); “active; positive” (Test System: AMES SALMONELLA TYPHIMURIUM, Strain/Indicator: TA98(1,8-DNP6), Metabolic Activation: RAT, LIVER, S-9, PCB (5%), Method: PREINCUBATION); “inactive; negative” (Test System: AMES SALMONELLA TYPHIMURIUM, Strain/Indicator: TA98(NR), Metabolic Activation: NONE, Method: PREINCUBATION); “active; positive” (Test System: AMES SALMONELLA TYPHIMURIUM, Strain/Indicator: TA98(NR), Metabolic Activation: NONE, Method: SUSPENSION); “active; positive” (Test System: AMES SALMONELLA TYPHIMURIUM, Strain/Indicator: TA98(NR), Metabolic Activation: RAT, LIVER, S-9 (15%), Method: PREINCUBATION). Besides, the mutagenic call is “active; positive” (Test System: AMES SALMONELLA TYPHIMURIUM, Strain/Indicator: TA98(NR), Metabolic Activation: RAT, LIVER, S-9, 3-METHYLCHOLANTHRENE (15%), Method: PREINCUBATION); “active; positive” (Test System: AMES SALMONELLA TYPHIMURIUM, Strain/Indicator: TA98(NR), Metabolic Activation: RAT, LIVER, S-9, BETA-NAPHTHOFLAVONE (15%), Method: PREINCUBATION); “active; positive” (Test System: AMES SALMONELLA TYPHIMURIUM, Strain/Indicator: TA98(NR), Metabolic Activation: RAT, LIVER, S-9, PCB (5 OR 15%), Method: PREINCUBATION); “active; positive” (Test System: AMES SALMONELLA TYPHIMURIUM, Strain/Indicator: TA98(NR), Metabolic Activation: RAT, LIVER, S-9, PHENOBARBITAL (15%), Method: PREINCUBATION); “active; positive” (Test System: AMES SALMONELLA TYPHIMURIUM, Strain/Indicator: TA98, Metabolic Activation: NONE, Method: PREINCUBATION); “active; positive” (Test System: AMES SALMONELLA TYPHIMURIUM, Strain/Indicator: TA98, Metabolic Activation: NONE, Method: SUSPENSION). Further, the mutagenic call is “active; positive” (Test System: AMES SALMONELLA TYPHIMURIUM, Strain/Indicator: TA98, Metabolic Activation: RAT, LIVER, S-9, PCB (5%), Method: PREINCUBATION); “active; positive” (Test System: AMES SALMONELLA TYPHIMURIUM, Strain/Indicator: TA98, Metabolic Activation: RAT, LIVER, S-9, PCB, Method: SUSPENSION); “inactive; negative” (Test System: AMES SALMONELLA TYPHIMURIUM, Strain/Indicator: TA100, Metabolic Activation: NONE, Method: PREINCUBATION); “inactive; negative” (Test System: AMES SALMONELLA TYPHIMURIUM, Strain/Indicator: TA100, Metabolic Activation: NONE, Method: SUSPENSION); “inactive; negative” (Test System: AMES SALMONELLA TYPHIMURIUM, Strain/Indicator: TA100, Metabolic Activation: RAT, LIVER, S-9, PCB, Method: PREINCUBATION); “inactive; negative” (Test System: AMES SALMONELLA TYPHIMURIUM, Strain/Indicator: TA100, Metabolic Activation: RAT, LIVER, S-9, PCB, Method: SUSPENSION).

In the case of `C=C1C(=O)O[C@@H]2C[C@]3(C)[C@@H](CCC(C)=O)[C@@H]3C[C@H]12`, the mutagenic call under setting [6] was “inactive; negative” and the mutagenic call (Test System: AMES SALMONELLA TYPHIMURIUM, Strain/Indicator: TA104, Metabolic Activation: RAT, LIVER, S-9, Method: STANDARD PLATE) was “inactive; negative”.
